# Source: article PMC7365463, “Oxfendazole mediates macrofilaricidal efficacy against the filarial nematode Litomosoides sigmodontis in vivo and inhibits Onchocerca spec. motility in vitro” (PLoS Neglected Tropical Diseases, 2020)
# Where two headings read alike, the source gives them in different places.
# Key:
# Brugia pahangi [1] = system: Brugia pahangi; set-up: method as in Reddy 1983 (Ref. 15); conditions: L3 (SC), Mastomys natalensis, patent phase, necropsy 43 days p.t., ref Reddy 1983 (Ref. 15), cited from earlier work
# Acanthocheilonema viteae = system: Acanthocheilonema viteae; set-up: method as in Nogami 1987 (Ref. 13); conditions: 50L3 (SC), hamster, SC 10mg/kg 5 cons. days, 12 weeks p.i, necropsy 5 weeks p.t.; ref Nogami 1987 (Ref. 13); cited from earlier work
# Litomosoides sigmodontis [2] = system: Litomosoides sigmodontis; set-up: method as in Reddy 1983 (Ref. 15); conditions: L3 (mite), Mastomys natalensis, patent phase, necropsy 43 days p.t., ref Reddy 1983 (Ref. 15), cited from earlier work
# [3] = system: Onchocerca lienalis microfilariae; experiment: O. lienalis microfilariae 5-day motility assay; conditions: 120 h
# Brugia pahangi [4] = conditions: cited from earlier work
# Litomosoides sigmodontis [5] = experiment: Patent L. sigmodontis infection in jirds (adult worms, microfilaremia, embryogenesis); conditions: jirds, SC 2 mg/kg QD for 5 days
# [6] = system: Onchocerca gutturosa adult male worms; experiment: O. gutturosa adult male worm 5-day motility assay
# [7] = system: Onchocerca gutturosa adult male worms; experiment: O. gutturosa adult worm MTT/formazan viability assay; conditions: 120 h
# Breinlia booliati = system: Breinlia booliati; set-up: method as in Mak 1981 (Ref. 7); conditions: 100L3 (SC), rats, SC 3mg/kg 5 cons. days, patent phase, necropsy 4 weeks p.t.; ref Mak 1981 (Ref. 7); cited from earlier work
smiles,measurement,setting,value
COC(=O)Nc1nc2cc(C(=O)c3ccc(F)cc3)ccc2[nH]1 [flubendazole],Reduction of worm burden,Brugia pahangi [1]; SC 100mg/kg 5 cons. days,100%
same,Reduction of worm burden,Brugia pahangi [1]; per os 150mg/kg 5 cons. days,20%
same,Reduction of worm burden,Acanthocheilonema viteae,68%
same,Reduction of worm burden,Litomosoides sigmodontis [2]; SC 100mg/kg 5 cons. days,100%
same,Reduction of worm burden,Litomosoides sigmodontis [2]; per os 150mg/kg 5 cons. days,0%
same,activity against microfilariae compared to oxfendazole,[3],even less active
same,Reduction of worm burden,"Brugia pahangi [4]; 15Ad (IP), jirds, SC 0.7mg/kg 5 cons. days, ref Denham 1979 (Ref. 4)",40%
same,Reduction of worm burden,"Brugia pahangi [4]; 15Ad (IP), jirds, SC 3.1mg/kg x1, ref Denham 1979 (Ref. 4)",23%
same,Reduction of worm burden,"Brugia pahangi [4]; 15Ad (IP), jirds, SC 5mg/kg 5 cons. days, 4 days p.i., necropsy 5 weeks p.t., ref Surin 1990 (Ref. 11)",100%
same,Reduction of worm burden,"Brugia pahangi [4]; 15Ad (IP), jirds, SC 6.3-12.5 mg/kg x1, ref Denham 1979 (Ref. 4)",70-80%
same,Reduction of worm burden,"Brugia pahangi [4]; 15Ad (IP), jirds, SC 10-50-100mg/ml 5 cons. days, ref Denham 1979 (Ref. 4)",96-100%
same,Reduction of worm burden,"Brugia pahangi [4]; 15Ad (IP), jirds, SC 25-200mg/kg x1, ref Denham 1979 (Ref. 4)",>98%
same,Reduction of worm burden,"Brugia pahangi [4]; 50L3 (IP), jirds, SC 5mg/kg 5 cons. days, 70 days p.i., necropsy 5 weeks p.t., ref Surin 1990 (Ref. 11)",98.5%
same,Reduction of worm burden,"Brugia pahangi [4]; 50L3 (IP), jirds, SC 25mg/kg 5 cons. days, 70 days p.i., necropsy 5 weeks p.t., ref Surin 1990 (Ref. 11)",100%
same,Reduction of worm burden,"Brugia pahangi [4]; 50L3 (IP), jirds, SC 25mg/kg x1, prepatent phase, necropsy 3-9 days p.t., ref Denham 1979 (Ref. 4)",no reduction
same,Reduction of worm burden,"Brugia pahangi [4]; 50L3 (IP), jirds, SC 25mg/kg x1, prepatent phase, necropsy 12-24 days p.t., ref Denham 1979 (Ref. 4)",80%
same,Reduction of worm burden,"Brugia pahangi [4]; 50L3 (IP), jirds, SC 25mg/kg x1, prepatent phase, necropsy 27-36 days p.t., ref Denham 1979 (Ref. 4)",100%
same,Reduction of worm burden,"Brugia pahangi [4]; prophylactic, 15Ad (IP), jirds, SC 100mg/kg x1, 2,3,4,5 weeks bef. i., necropsy 35 days pi, ref Denham 1980 (Ref. 1)",100%
same,Reduction of worm burden,"Brugia pahangi [4]; prophylactic, 15Ad (IP), jirds, SC 100mg/kg x1, 6,9,12 weeks bef. i., necropsy 35 days pi, ref Denham 1980 (Ref. 1)",92-100%
same,Reduction of worm burden,"Brugia pahangi [4]; prophylactic, 15Ad (IP), jirds, SC 100mg/kg x1, 24 weeks bef. i., necropsy 35 days pi, ref Denham 1980 (Ref. 1)",9%
same,Reduction of worm burden,"Brugia pahangi [4]; prophylactic, 15Ad (IP), jirds, SC 100mg/kg x1, 2 days bef. i., necropsy 35 days pi, ref Denham 1980 (Ref. 1)",100%
same,Reduction of worm burden,"Brugia pahangi [4]; prophylactic, 50L3, jirds, SC 25mg/kg x1, 137 days bef. i., necropsy 9-10 weeks p.t., ref Chusattayanond 1984 (Ref. 2)",8%
same,adult worms at necropsy,Litomosoides sigmodontis [5]; necropsy 16 weeks post-treatment,no adult worms were recovered
same,clearance of microfilariae from peripheral blood,Litomosoides sigmodontis [5]; week 4 after treatment start,all microfilariae were cleared
same,Motility Reduction (%),"[6]; 1.25 x 10^-5 M, 24 h",10%
same,Motility Reduction (%),"[6]; 1.25 x 10^-5 M, 48 h",12%
same,Motility Reduction (%),"[6]; 1.25 x 10^-5 M, 72 h",33%
same,Motility Reduction (%),"[6]; 1.25 x 10^-5 M, 96 h",44%
same,Motility Reduction (%),"[6]; 1.25 x 10^-5 M, 120 h",51%
same,Motility Reduction (%),"[6]; 3.1 x 10^-6 M, 24 h",4%
same,Motility Reduction (%),"[6]; 3.1 x 10^-6 M, 48 h",5%
same,Motility Reduction (%),"[6]; 3.1 x 10^-6 M, 72 h",16%
same,Motility Reduction (%),"[6]; 3.1 x 10^-6 M, 96 h",38%
same,Motility Reduction (%),"[6]; 3.1 x 10^-6 M, 120 h",40%
same,Motility Reduction (%),"[6]; 5.0 x 10^-5 M, 24 h",23%
same,Motility Reduction (%),"[6]; 5.0 x 10^-5 M, 48 h",22%
same,Motility Reduction (%),"[6]; 5.0 x 10^-5 M, 72 h",36%
same,Motility Reduction (%),"[6]; 5.0 x 10^-5 M, 96 h",38%
same,Motility Reduction (%),"[6]; 5.0 x 10^-5 M, 120 h",54%
same,Motility Reduction (%),"[6]; 7.8 x 10^-7 M, 24 h",6%
same,Motility Reduction (%),"[6]; 7.8 x 10^-7 M, 48 h",9%
same,Motility Reduction (%),"[6]; 7.8 x 10^-7 M, 72 h",13%
same,Motility Reduction (%),"[6]; 7.8 x 10^-7 M, 96 h",33%
same,Motility Reduction (%),"[6]; 7.8 x 10^-7 M, 120 h",26%
same,MTT Reduction (%),[7]; 1.25 x 10^-5 M,2%
same,MTT Reduction (%),[7]; 3.1 x 10^-6 M,3%
same,MTT Reduction (%),[7]; 5.0 x 10^-5 M,20%
same,MTT Reduction (%),[7]; 7.8 x 10^-7 M,3%
same,Reduction of worm burden,Breinlia booliati,100%
